Measured values reported in US20190151312A1, “HEPARAN SULFATE BIOSYNTHESIS INHIBITORS FOR THE TREATMENT OF DISEASES” (BioMarin Pharmaceutical Inc., priority 2014, published 2019).
pIC50: −log10 of the molar value.

What follows are compounds tested on GM01896 cells (MPS II dermal fibroblasts) (assay: Assay 1: MPS cellular assay, MPS II (heparan sulfate disaccharide biomarkers by LC-MS)). Settings: Assay 1 for MPS II, heparan sulfate disaccharide biomarkers (I2a4, I2a6, I2S0 and/or I2S6), read-out: IC50 Range.
Type: cell-based, human
Experimental: Dermal fibroblasts from humans with an MPS disorder and from healthy donors are grown. Cells are expanded and kept in culture for analysis. Human foreskin fibroblasts can be obtained from the American Type Culture Collection (CRL-1634). Human dermal fibroblasts derived from biopsies of individuals are purchased from Coriell Institute: clinically healthy individuals, GM00408, GM00409, GM00200 (clinically unaffected sibling of an individual with metachromatic leukodystrophy), GM05659, GM08398, and GM15871 (clinically unaffected sibling of an individual with unclassified Ehlers-Danlos syndrome); heterozygous MPS I carriers, GM01392, GM01393 and GM0003; homozygous individuals affected with MPS I, GM06214, GM11495, GM00034, GM01391 and GM01256; individuals with MPS II, GM01896, GM03181, GM00615 and GM00298; individuals with MPS IIIA, GM00879, GM00643, GM00934, GM06110 and GM00629; MPS IIIB, GM01426; MPS IIIC, GM05157; MPS IIID, GM05093; and MPS VII, GM00121. All cells are grown in DMEM containing 50 U ml-1 penicillin, […] ml-1 streptomycin, 2 mM glutamine and 10% FBS. Cells are seeded on 15-cm-diameter tissue culture dishes, grown to confluence and maintained in culture for analysis. Sulfamidase activity in cell extracts is measured with 4-methylumbelliferyl-α-D-N-sulfoglucosaminide according the vendors instructions substituting Tris-acetate buffer (pH 6.5; Moscerdam).
Cells are treated with a compound of the invention at a concentration at or below 30 μM for 4 to 21 days. Cell monolayers are washed with phosphate buffered saline and detached by treatment with GIBCO trypsin-EDTA solution (Invitrogen). After centrifugation, the supernatant is removed and the cells are lysed in 0.5 mL of 0.1 N sodium hydroxide. The amount of protein is determined by bicinchoninic acid (BCA assay, Thermo Scientific). GAGs are isolated by anion exchange chromatography and digested with glycosaminoglycan lyases (heparinases I, II, and III, IBEX).
Enzymatically depolymerized GAG preparations are differentially mass labeled by reductive amination with [^12C6]aniline. Briefly, heparan sulfate disaccharides (1-10 pmol) are dried down in a centrifugal evaporator and reacted with [^12C6]aniline or [^13C6]aniline (15 μL, 165 μmol) and 15 μL of 1 M NaCNBH3 (Sigma-Aldrich) freshly prepared in dimethylsulfoxide/acetic acid (7:3, v/v) is added to each sample. Reactions are carried out at 37° C. for 16 h and then dried in a centrifugal evaporator. Unsubstituted amines are reacted with propionic anhydride (Sigma-Aldrich). Dried samples are reconstituted in 20 μL of 50% methanol, and 3 μL of propionic anhydride (Sigma-Aldrich, 23.3 μmol) is added. Reactions are carried out at ˜23° C. for 2 h. Acylated disaccharides are subsequently aniline tagged as described above. Each sample is mixed with commercially available standard unsaturated disaccharides (Seikagaku), standard N-sulfoglucosamine, glucosamine-6-sulfate, N-acetylgalactosamine-4-sulfate and N-acetylgalactosamine-6-sulfate (Sigma-Aldrich), and/or synthesized α-L-idopyranosyluronate-(1,4)-2-N-acetyl-2-deoxy-α/β-D-glucopyranoside (I0S0). All standards are tagged with [^13C6]aniline (Sigma-Aldrich). Samples are then analyzed by LC-MS using an LTQ Orbitrap Discovery electrospray ionization mass spectrometer (Thermo Scientific) equipped with quaternary HPLC pump (Finnigan Surveyor MS pump) and a reverse-phase capillary column as described in J. Biol. Chem. 2008, 283(48), 33674.
MPS II: Assay 1, as described above, was used to determine activity for MPS II using GM01896 cells. […] Extracted ion chromatograms were obtained. Cell viability was monitored using alamar blue or ATP quantification. IC50's were calculated using curve fitting within the ChemInnovation CBIS database system.

`Cn1nc(N2CCOCC2)c2ccc(-c3cc(Nc4ccc(Cl)cc4)nc(N4CCOCC4)n3)cc21` [(4-chlorophenyl)[6-(1-methyl-3-morpholin-4-yl(1H-indazol-6-yl))-2-morpholin-4-ylpyrimidin-4-yl]amine] and `Cn1nc(N2CCCC2)c2ccc(-c3cc(Nc4ccc(Cl)cc4)nc(N4CCOCC4)n3)cc21` [(4-chlorophenyl)[6-(1-methyl-3-pyrrolidinyl(1H-indazol-6-yl))-2-morpholin-4-ylpyrimidin-4-yl]amine] fall in the same range of pIC50: 5.30 to 6.00 for the first, 5.30 to 6.00 for the second.

Same assay, conditions: Homo sapiens, Fibroblast, Assay 1 for MPS II, heparan sulfate disaccharide biomarkers (I2a4, I2a6, I2S0 and/or I2S6), read-out: IC50 Range

First: Cn1nc(NCCCCN2CCCC2)c2ccc(-c3cc(Nc4ccc(Cl)cc4)nc(N4CCOCC4)n3)cc21 [(4-chlorophenyl)(6-{1-methyl-3-[(4-pyrrolidinylbutyl)amino](1H-indazol-6-yl)}-2-morpholin-4-ylpyrimidin-4-yl)amine]
Second: CCc1nn(C)c2cc(-c3cc(Nc4ccc(Cl)cc4)nc(N4CCOCC4)n3)ccc12 [(4-chlorophenyl)[6-(3-ethyl-1-methyl(1H-indazol-6-yl))-2-morpholin-4-ylpyrimidin-4-yl]amine]
The pIC50 of the first is higher: 6.00 to 6.30 for the first, 5.30 to 6.00 for the second.

`COCCNc1nc2ccc(-c3cc(Nc4ccc(Cl)cc4)nc(N4CCOCC4)n3)cc2n1C` [(4-chlorophenyl)(6-{2-[(2-methoxyethyl)amino]-1-methylbenzimidazol-6-yl}-2-morpholin-4-ylpyrimidin-4-yl)amine] and `Cn1c(C2CC2)nc2ccc(-c3cc(Nc4ccc(Cl)cc4)nc(N4CCOCC4)n3)cc21` [(4-chlorophenyl)[6-(2-cyclopropyl-1-methylbenzimidazol-6-yl)-2-morpholin-4-ylpyrimidin-4-yl]amine] fall in the same range of pIC50: 6.00 to 6.30 for the first, 6.00 to 6.30 for the second.

First: Clc1ccc(Nc2cc(-c3ccc4c(c3)ncn4C3COC3)nc(N3CCOCC3)n2)cc1 [(4-chlorophenyl)[2-morpholin-4-yl-6-(1-oxetan-3-ylbenzimidazol-5-yl)pyrimidin-4-yl]amine]
Second: Clc1ccc(Nc2cc(-c3ccc4ncn(C5COC5)c4c3)nc(N3CCOCC3)n2)cc1 [(4-chlorophenyl)[2-morpholin-4-yl-6-(1-oxetan-3-ylbenzimidazol-6-yl)pyrimidin-4-yl]amine]
The pIC50 of the first is lower: 6.00 to 6.30 for the first, > 6.30 for the second. The second is the more potent here.

First: Cc1c(Nc2ccc(Cl)cc2)nc(N2CCOCC2)nc1-c1ccc2cnn(C)c2c1 [(4-chlorophenyl)[5-methyl-6-(1-methyl(1H-indazol-6-yl))-2-morpholin-4-ylpyrimidin-4-yl]amine]
Second: Cn1ncc2ccc(-c3cc(Nc4ccc(Cl)cc4)nc(N4CCOCC4)n3)cc21 [(4-chlorophenyl)[6-(1-methyl(1H-indazol-6-yl))-2-morpholin-4-ylpyrimidin-4-yl]amine]
The pIC50 of the first is lower: 5.30 to 6.00 for the first, 6.00 to 6.30 for the second.

`Clc1ccc(Nc2cc(-c3ccc4cnn(C5CCC5)c4c3)nc(N3CCOCC3)n2)cc1` [(4-chlorophenyl)[6-(1-cyclobutyl(1H-indazol-6-yl))-2-morpholin-4-ylpyrimidin-4-yl]amine] and `Clc1ccc(Nc2cc(-c3ccc4cnn(C5CC5)c4c3)nc(N3CCOCC3)n2)cc1` [(4-chlorophenyl)[6-(1-cyclopropyl(1H-indazol-6-yl))-2-morpholin-4-ylpyrimidin-4-yl]amine] fall in the same range of pIC50: 5.30 to 6.00 for the first, 5.30 to 6.00 for the second.

`Cc1nc2cc(-c3cc(Nc4ccc(Cl)cc4)nc(N4CCOCC4)n3)ccc2n1C1CCC1` [(4-chlorophenyl)[6-(1-cyclobutyl-2-methylbenzimidazol-5-yl)-2-morpholin-4-ylpyrimidin-4-yl]amine] and `Cc1nc2ccc(-c3cc(Nc4ccc(Cl)cc4)nc(N4CCOCC4)n3)cc2n1C1CCC1` [(4-chlorophenyl)[6-(1-cyclobutyl-2-methylbenzimidazol-6-yl)-2-morpholin-4-ylpyrimidin-4-yl]amine] fall in the same range of pIC50: 5.30 to 6.00 for the first, 5.30 to 6.00 for the second.

`Clc1ccc(Nc2cc(-c3ccc4ncn(C5CCC5)c4c3)nc(N3CCOCC3)n2)cc1` [(4-chlorophenyl)[6-(1-cyclobutylbenzimidazol-6-yl)-2-morpholin-4-ylpyrimidin-4-yl]amine] and `Clc1ccc(Nc2cc(-c3ccc4ncn(C5CC5)c4c3)nc(N3CCOCC3)n2)cc1` [(4-chlorophenyl)[6-(1-cyclopropylbenzimidazol-6-yl)-2-morpholin-4-ylpyrimidin-4-yl]amine] fall in the same range of pIC50: 6.00 to 6.30 for the first, 6.00 to 6.30 for the second.

Compared with `Cc1nc2ccc(-c3cc(Nc4ccc(Cl)cc4)nc(N4CCOCC4)n3)cc2n1C1CC1` [(4-chlorophenyl)[6-(1-cyclopropyl-2-methylbenzimidazol-6-yl)-2-morpholin-4-ylpyrimidin-4-yl]amine], `Cc1nc2ccc(-c3cc(Nc4ccc(Cl)cc4)nc(N4CCOCC4)n3)cc2n1C1COC1` [(4-chlorophenyl)[6-(2-methyl-1-oxetan-3-ylbenzimidazol-6-yl)-2-morpholin-4-ylpyrimidin-4-yl]amine] is higher in pIC50: 6.00 to 6.30 for the first, > 6.30 for the second. The second is the more potent here.

First: Clc1ccc(Nc2cc(-c3ccc4c(c3)ncn4C3CC3)nc(N3CCOCC3)n2)cc1 [(4-chlorophenyl)[6-(1-cyclopropylbenzimidazol-5-yl)-2-morpholin-4-ylpyrimidin-4-yl]amine]
Second: Cn1cnc2cc(-c3cc(Nc4ccc(Cl)cc4)nc(N4CCOCC4)n3)ccc21 [(4-chlorophenyl)[6-(1-methylbenzimidazol-5-yl)-2-morpholin-4-ylpyrimidin-4-yl]amine]
The pIC50 of the first is lower: 5.30 to 6.00 for the first, 6.00 to 6.30 for the second.

First: Cn1c(N2CCCC2)nc2ccc(-c3cc(Nc4ccc(Cl)cc4)nc(N4CCOCC4)n3)cc21 [(4-chlorophenyl)[6-(1-methyl-2-pyrrolidinylbenzimidazol-6-yl)-2-morpholin-4-ylpyrimidin-4-yl]amine]
Second: Cn1cnc2ccc(-c3cc(Nc4ccc(Cl)cc4)nc(N4CCOCC4)n3)cc21 [(4-chlorophenyl)[6-(1-methylbenzimidazol-6-yl)-2-morpholin-4-ylpyrimidin-4-yl]amine]
The pIC50 of the first is lower: 5.30 to 6.00 for the first, > 6.30 for the second. The second is the more potent here.

Compared with `Cn1ncc2ncc(-c3cc(Nc4ccc(Cl)cc4)nc(N4CCOCC4)n3)cc21` [(4-chlorophenyl)[6-(1-methylpyrazolo[4,5-b]pyridin-6-yl)-2-morpholin-4-ylpyrimidin-4-yl]amine], `CCc1nn(C)c2cc(-c3cc(Nc4ccc(Cl)cc4)nc(N4CCOCC4)n3)cnc12` [(4-chlorophenyl)[6-(3-ethyl-1-methylpyrazolo[4,5-b]pyridin-6-yl)-2-morpholin-4-ylpyrimidin-4-yl]amine] is lower in pIC50: 6.00 to 6.30 for the first, 5.30 to 6.00 for the second. The first is the more potent here.

Compared with `Cn1ncc2ccc(-c3cc(Nc4ccc(Cl)cc4)nc(N4CCOCC4)n3)nc21` [(4-chlorophenyl)[6-(1-methylpyrazolo[4,5-e]pyridin-6-yl)-2-morpholin-4-ylpyrimidin-4-yl]amine], `Cc1nc2cc(-c3cc(Nc4ccc(Cl)cc4)nc(N4CCOCC4)n3)ccc2n1C1COC1` [(4-chlorophenyl)[6-(2-methyl-1-oxetan-3-ylbenzimidazol-5-yl)-2-morpholin-4-ylpyrimidin-4-yl]amine] is higher in pIC50: 5.30 to 6.00 for the first, > 6.30 for the second.

First: Clc1ccc(Nc2cc(-c3ccc4c(cnn4CCN4CCOCC4)c3)nc(N3CCOCC3)n2)cc1 [(4-chlorophenyl){2-morpholin-4-yl-6-[1-(2-morpholin-4-ylethyl)(1H-indazol-5-yl)]pyrimidin-4-yl}amine]
Second: Clc1ccc(Nc2cc(-c3ccc4cnn(CCN5CCOCC5)c4c3)nc(N3CCOCC3)n2)cc1 [(4-chlorophenyl){2-morpholin-4-yl-6-[1-(2-morpholin-4-ylethyl)(1H-indazol-6-yl)]pyrimidin-4-yl}amine]
The pIC50 of the first is lower: 5.30 to 6.00 for the first, 6.00 to 6.30 for the second.

Work on `Clc1ccc(Nc2cc(-c3ccc4c(c3)ncn4CCN3CCOCC3)nc(N3CCOCC3)n2)cc1` [(4-chlorophenyl){2-morpholin-4-yl-6-[1-(2-morpholin-4-ylethyl)benzimidazol-5-yl]pyrimidin-4-yl}amine] yielded a pIC50 of 6.00 to 6.30.
